Source: the kinase profiling compilation of Christmann-Franck et al. (2016)

What was measured:
Test in all cases: radiometric filter-binding kinase assay
[1] = molecular target: ABL1 (human) (UniProt P00519)
[2] = molecular target: CDK9 CCNT1 (human) (UniProt P50750+O60563)
[3] = molecular target: CHEK2 (human) (UniProt O96017)
[4] = molecular target: CSNK1G2 (human) (UniProt P78368)
[5] = molecular target: DDR2 (human) (UniProt Q16832)
[6] = molecular target: EIF2AK3 (human) (UniProt Q9NZJ5)
[7] = molecular target: IRAK1 (human) (UniProt P51617)
[8] = molecular target: MAP4K3 (human) (UniProt Q8IVH8)
[9] = molecular target: MAP4K5 (human) (UniProt Q9Y4K4)
[10] = molecular target: MAPK7 (human) (UniProt Q13164)
[11] = molecular target: MARK3 (human) (UniProt P27448)
[12] = tested on: OXSR1 (human), O95747 [T185E]
[13] = molecular target: PDGFRA (human) (UniProt P16234)
[14] = molecular target: PRKAA1 PRKAB2 PRKAG1 (human) (UniProt O43741+Q13131+P54619)
[15] = molecular target: PRKCG (human) (UniProt P05129)
[16] = molecular target: PTK6 (human) (UniProt Q13882)
[17] = molecular target: SIK2 (human) (UniProt Q9H0K1)
[18] = molecular target: SIK3 (human) (UniProt Q9Y2K2)
[19] = molecular target: STK16 (human) (UniProt O75716)
[20] = molecular target: STK24 (human) (UniProt Q9Y6E0)
[21] = molecular target: STK33 (human) (UniProt Q9BYT3)
[22] = molecular target: TEK (human) (UniProt Q02763)
[23] = molecular target: TESK1 (human) (UniProt Q15569)
[24] = tested on: TGFBR1 (human), P36897 [T204D]
[25] = molecular target: TLK1 (human) (UniProt Q9UKI8)
[26] = molecular target: TSSK1B (human) (UniProt Q9BXA7)
[27] = molecular target: TTBK1 (human) (UniProt Q5TCY1)
[28] = molecular target: TTBK2 (human) (UniProt Q6IQ55)
[29] = molecular target: ULK1 (human) (UniProt O75385)
[30] = molecular target: ULK2 (human) (UniProt Q8IYT8)
[31] = molecular target: WNK1 (human) (UniProt Q9H4A3)
[32] = molecular target: ZAP70 (human) (UniProt P43403)

MAP4K5 (human), sequence (Q9Y4K4 whole entry, looked up): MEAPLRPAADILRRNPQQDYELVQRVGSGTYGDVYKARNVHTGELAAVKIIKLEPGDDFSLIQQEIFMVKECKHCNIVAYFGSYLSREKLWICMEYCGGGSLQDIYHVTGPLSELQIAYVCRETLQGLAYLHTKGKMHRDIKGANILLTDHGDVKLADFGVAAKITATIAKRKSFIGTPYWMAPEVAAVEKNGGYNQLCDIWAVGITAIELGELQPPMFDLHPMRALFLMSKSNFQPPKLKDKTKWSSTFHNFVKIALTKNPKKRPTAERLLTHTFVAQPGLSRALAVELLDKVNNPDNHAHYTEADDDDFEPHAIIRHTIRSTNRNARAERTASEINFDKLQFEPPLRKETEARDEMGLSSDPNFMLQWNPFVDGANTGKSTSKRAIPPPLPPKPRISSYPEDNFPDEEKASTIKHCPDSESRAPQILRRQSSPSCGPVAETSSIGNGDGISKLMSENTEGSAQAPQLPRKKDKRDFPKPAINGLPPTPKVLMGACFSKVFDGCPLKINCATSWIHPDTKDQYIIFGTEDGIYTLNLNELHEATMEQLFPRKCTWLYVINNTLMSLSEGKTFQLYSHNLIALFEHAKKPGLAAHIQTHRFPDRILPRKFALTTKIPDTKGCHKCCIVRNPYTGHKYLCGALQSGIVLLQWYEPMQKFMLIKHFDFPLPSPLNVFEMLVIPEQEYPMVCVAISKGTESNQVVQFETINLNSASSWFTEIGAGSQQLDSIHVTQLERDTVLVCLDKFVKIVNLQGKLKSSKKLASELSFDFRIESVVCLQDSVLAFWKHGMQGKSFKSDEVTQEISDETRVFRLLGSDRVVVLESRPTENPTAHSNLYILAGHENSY
PRKAA1 PRKAB2 PRKAG1 (human), sequence (O43741 whole entry, looked up): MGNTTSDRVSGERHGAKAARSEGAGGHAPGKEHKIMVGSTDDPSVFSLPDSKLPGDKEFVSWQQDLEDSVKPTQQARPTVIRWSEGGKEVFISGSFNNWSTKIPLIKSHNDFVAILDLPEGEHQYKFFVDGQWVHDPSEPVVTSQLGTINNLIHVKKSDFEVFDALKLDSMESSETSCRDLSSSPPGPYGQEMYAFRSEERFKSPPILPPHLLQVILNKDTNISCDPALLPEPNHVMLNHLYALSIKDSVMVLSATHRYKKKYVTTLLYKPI
PRKAA1 PRKAB2 PRKAG1 (human), sequence (P54619 whole entry, looked up): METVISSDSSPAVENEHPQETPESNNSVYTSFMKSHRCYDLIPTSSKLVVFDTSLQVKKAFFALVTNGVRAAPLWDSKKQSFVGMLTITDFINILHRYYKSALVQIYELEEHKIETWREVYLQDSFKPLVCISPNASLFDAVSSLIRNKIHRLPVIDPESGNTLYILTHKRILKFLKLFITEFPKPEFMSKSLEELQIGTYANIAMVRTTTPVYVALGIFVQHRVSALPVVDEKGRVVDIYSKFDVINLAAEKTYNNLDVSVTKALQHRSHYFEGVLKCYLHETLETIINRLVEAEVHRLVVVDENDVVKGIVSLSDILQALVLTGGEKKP
PRKAA1 PRKAB2 PRKAG1 (human), sequence (Q13131 whole entry, looked up): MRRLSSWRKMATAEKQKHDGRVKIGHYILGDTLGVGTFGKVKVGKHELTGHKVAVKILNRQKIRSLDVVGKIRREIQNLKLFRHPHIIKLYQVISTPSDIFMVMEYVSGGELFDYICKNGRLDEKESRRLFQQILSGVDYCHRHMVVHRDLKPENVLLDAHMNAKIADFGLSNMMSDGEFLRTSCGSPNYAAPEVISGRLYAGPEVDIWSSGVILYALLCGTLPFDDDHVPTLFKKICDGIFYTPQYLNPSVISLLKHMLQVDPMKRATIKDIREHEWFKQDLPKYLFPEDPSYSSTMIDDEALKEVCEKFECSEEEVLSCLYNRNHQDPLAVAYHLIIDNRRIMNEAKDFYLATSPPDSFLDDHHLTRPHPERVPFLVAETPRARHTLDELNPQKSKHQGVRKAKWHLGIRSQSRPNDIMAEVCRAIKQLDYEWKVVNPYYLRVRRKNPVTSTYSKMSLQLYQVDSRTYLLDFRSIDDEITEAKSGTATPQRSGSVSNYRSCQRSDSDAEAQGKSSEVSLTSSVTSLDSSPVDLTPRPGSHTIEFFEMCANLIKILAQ
ABL1 (human), sequence (P00519 whole entry, looked up): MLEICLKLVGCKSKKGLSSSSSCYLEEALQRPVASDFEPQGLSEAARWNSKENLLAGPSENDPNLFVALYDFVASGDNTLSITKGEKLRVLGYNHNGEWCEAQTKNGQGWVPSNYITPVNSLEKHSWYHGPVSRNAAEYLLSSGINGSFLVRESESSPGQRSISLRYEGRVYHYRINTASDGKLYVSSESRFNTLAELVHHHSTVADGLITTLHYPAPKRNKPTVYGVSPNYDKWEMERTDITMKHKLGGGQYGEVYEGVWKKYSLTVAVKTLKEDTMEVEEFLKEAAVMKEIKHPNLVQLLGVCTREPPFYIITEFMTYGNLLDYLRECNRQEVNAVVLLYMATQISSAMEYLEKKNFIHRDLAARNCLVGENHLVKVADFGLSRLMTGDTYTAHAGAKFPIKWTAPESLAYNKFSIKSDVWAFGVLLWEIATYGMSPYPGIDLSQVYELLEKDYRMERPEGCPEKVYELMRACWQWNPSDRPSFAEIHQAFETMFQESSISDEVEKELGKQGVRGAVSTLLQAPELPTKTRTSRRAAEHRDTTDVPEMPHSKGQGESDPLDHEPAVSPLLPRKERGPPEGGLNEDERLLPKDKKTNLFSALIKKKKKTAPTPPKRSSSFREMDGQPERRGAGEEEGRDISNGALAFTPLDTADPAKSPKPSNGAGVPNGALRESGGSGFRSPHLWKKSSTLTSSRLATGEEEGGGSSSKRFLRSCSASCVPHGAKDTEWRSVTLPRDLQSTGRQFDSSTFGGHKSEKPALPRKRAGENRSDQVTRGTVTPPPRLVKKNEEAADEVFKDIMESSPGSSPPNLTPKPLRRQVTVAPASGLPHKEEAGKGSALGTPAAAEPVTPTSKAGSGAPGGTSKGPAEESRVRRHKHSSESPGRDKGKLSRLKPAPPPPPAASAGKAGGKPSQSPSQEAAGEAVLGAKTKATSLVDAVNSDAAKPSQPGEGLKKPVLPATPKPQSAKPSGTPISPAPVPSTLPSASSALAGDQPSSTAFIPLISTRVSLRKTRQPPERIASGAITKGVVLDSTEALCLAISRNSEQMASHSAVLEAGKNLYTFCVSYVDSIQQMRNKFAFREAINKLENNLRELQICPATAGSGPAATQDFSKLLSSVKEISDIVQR
DDR2 (human), sequence (Q16832 whole entry, looked up): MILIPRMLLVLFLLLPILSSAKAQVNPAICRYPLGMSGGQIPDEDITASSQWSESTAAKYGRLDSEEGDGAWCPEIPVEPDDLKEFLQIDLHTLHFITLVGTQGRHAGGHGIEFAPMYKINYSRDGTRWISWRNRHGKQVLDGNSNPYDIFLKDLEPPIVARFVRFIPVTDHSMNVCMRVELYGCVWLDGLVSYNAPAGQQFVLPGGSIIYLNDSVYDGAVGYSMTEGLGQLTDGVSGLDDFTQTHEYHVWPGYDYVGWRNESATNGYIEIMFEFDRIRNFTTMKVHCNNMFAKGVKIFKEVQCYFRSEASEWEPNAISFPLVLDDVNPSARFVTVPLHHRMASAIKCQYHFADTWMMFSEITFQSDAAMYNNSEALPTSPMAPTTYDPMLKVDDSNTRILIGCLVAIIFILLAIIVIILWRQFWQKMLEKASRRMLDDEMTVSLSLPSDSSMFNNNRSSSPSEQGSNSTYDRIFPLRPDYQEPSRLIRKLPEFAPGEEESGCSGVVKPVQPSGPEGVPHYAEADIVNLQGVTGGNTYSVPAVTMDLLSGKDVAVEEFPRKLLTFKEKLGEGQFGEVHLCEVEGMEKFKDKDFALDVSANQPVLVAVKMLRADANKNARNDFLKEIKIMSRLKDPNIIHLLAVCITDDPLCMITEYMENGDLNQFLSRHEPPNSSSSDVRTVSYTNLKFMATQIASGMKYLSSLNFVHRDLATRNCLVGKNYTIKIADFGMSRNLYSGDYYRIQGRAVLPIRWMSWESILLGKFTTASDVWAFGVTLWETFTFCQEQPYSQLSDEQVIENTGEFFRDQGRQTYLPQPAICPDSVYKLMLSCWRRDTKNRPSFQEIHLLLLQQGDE
MAPK7 (human), sequence (Q13164 whole entry, looked up): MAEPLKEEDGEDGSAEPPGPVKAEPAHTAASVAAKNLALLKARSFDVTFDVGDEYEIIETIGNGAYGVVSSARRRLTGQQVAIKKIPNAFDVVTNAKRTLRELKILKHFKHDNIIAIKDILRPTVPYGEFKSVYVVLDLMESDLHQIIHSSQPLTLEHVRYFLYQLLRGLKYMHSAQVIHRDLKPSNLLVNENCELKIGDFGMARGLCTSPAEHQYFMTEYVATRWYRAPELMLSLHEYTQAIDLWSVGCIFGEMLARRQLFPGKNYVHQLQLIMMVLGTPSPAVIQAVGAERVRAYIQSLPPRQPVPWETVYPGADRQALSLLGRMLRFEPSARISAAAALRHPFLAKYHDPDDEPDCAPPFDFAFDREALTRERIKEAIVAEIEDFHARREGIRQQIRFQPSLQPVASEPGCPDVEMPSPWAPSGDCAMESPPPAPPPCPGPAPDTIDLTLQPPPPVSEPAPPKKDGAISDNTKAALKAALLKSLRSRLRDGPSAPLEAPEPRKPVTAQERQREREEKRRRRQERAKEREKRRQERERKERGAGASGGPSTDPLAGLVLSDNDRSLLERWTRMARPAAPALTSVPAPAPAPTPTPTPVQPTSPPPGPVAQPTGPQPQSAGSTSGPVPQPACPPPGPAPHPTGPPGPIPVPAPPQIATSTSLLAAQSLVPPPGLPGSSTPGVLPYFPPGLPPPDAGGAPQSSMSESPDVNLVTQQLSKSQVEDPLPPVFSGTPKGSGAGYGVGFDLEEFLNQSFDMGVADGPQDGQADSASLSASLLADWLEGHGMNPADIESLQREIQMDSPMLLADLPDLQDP

CNC(=O)C1[C@H]2O[C@@](C)([C@@H]1N)n1c3ccccc3c3c4c(c5c6ccccc6n2c5c31)C(=O)NC4 (stereo partly drawn)
residual activity ([1]; compound 0.01 µM): 98%
residual activity ([1]; compound 0.1 µM): 82%
residual activity ([1]; compound 1.0 µM): 37%
residual activity ([2]; compound 0.01 µM): 61%
residual activity ([2]; compound 0.1 µM): 17%
residual activity ([2]; compound 1.0 µM): 15%
residual activity ([3]; compound 0.01 µM): 24%
residual activity ([3]; compound 0.1 µM): 5%
residual activity ([3]; compound 1.0 µM): 2%
residual activity ([4]; compound 0.01 µM): 106%
residual activity ([4]; compound 0.1 µM): 97%
residual activity ([4]; compound 1.0 µM): 86%
residual activity ([5]; compound 0.1 µM): 8%
residual activity ([5]; compound 1.0 µM): 3%
residual activity ([6]; compound 0.01 µM): 62%
residual activity ([6]; compound 0.1 µM): 59%
residual activity ([6]; compound 1.0 µM): 36%
residual activity ([7]; compound 0.01 µM): 15%
residual activity ([7]; compound 0.1 µM): 2%
residual activity ([7]; compound 1.0 µM): 3%
residual activity ([8]; compound 0.01 µM): 3%
residual activity ([8]; compound 0.1 µM): 2%
residual activity ([8]; compound 1.0 µM): 1%
residual activity ([9]; compound 0.01 µM): 10%
residual activity ([9]; compound 0.1 µM): 7%
residual activity ([9]; compound 1.0 µM): 4%
residual activity ([10]; compound 0.01 µM): 66%
residual activity ([10]; compound 0.1 µM): 24%
residual activity ([10]; compound 1.0 µM): 12%
residual activity ([11]; compound 0.01 µM): 7%
residual activity ([11]; compound 0.1 µM): 3%
residual activity ([11]; compound 1.0 µM): 2%
residual activity ([12]; compound 0.01 µM): 75%
residual activity ([12]; compound 0.1 µM): 23%
residual activity ([12]; compound 1.0 µM): 7%
residual activity ([13]; compound 0.01 µM): 54%
residual activity ([13]; compound 0.1 µM): 8%
residual activity ([13]; compound 1.0 µM): 2%
residual activity ([14]; compound 0.01 µM): 4%
residual activity ([14]; compound 0.1 µM): 3%
residual activity ([14]; compound 1.0 µM): 1%
residual activity ([15]; compound 0.01 µM): 95%
residual activity ([15]; compound 0.1 µM): 51%
residual activity ([15]; compound 1.0 µM): 13%
residual activity ([16]; compound 0.01 µM): 28%
residual activity ([16]; compound 0.1 µM): 16%
residual activity ([16]; compound 1.0 µM): 4%
residual activity ([17]; compound 0.01 µM): 4%
residual activity ([17]; compound 0.1 µM): 0%
residual activity ([17]; compound 1.0 µM): 1%
residual activity ([18]; compound 0.01 µM): 31%
residual activity ([18]; compound 0.1 µM): 7%
residual activity ([18]; compound 1.0 µM): 2%
residual activity ([19]; compound 0.01 µM): 102%
residual activity ([19]; compound 0.1 µM): 85%
residual activity ([19]; compound 1.0 µM): 69%
residual activity ([20]; compound 0.01 µM): 97%
residual activity ([20]; compound 0.1 µM): 50%
residual activity ([20]; compound 1.0 µM): 6%
residual activity ([21]; compound 0.01 µM): 44%
residual activity ([21]; compound 0.1 µM): 27%
residual activity ([21]; compound 1.0 µM): 23%
residual activity ([22]; compound 0.01 µM): 59%
residual activity ([22]; compound 0.1 µM): 41%
residual activity ([22]; compound 1.0 µM): 20%
residual activity ([23]; compound 0.01 µM): 76%
residual activity ([23]; compound 0.1 µM): 19%
residual activity ([23]; compound 1.0 µM): 2%
residual activity ([24]; compound 0.01 µM): 96%
residual activity ([24]; compound 0.1 µM): 74%
residual activity ([24]; compound 1.0 µM): 17%
residual activity ([25]; compound 0.01 µM): 93%
residual activity ([25]; compound 0.1 µM): 39%
residual activity ([25]; compound 1.0 µM): 6%
residual activity ([26]; compound 0.01 µM): 13%
residual activity ([26]; compound 0.1 µM): 5%
residual activity ([26]; compound 1.0 µM): 4%
residual activity ([27]; compound 0.01 µM): 101%
residual activity ([27]; compound 0.1 µM): 108%
residual activity ([27]; compound 1.0 µM): 99%
residual activity ([28]; compound 0.01 µM): 107%
residual activity ([28]; compound 0.1 µM): 102%
residual activity ([28]; compound 1.0 µM): 90%
residual activity ([29]; compound 0.01 µM): 102%
residual activity ([29]; compound 0.1 µM): 43%
residual activity ([29]; compound 1.0 µM): 11%
residual activity ([30]; compound 0.01 µM): 30%
residual activity ([30]; compound 0.1 µM): 5%
residual activity ([30]; compound 1.0 µM): 1%
residual activity ([31]; compound 0.1 µM): 91%
residual activity ([31]; compound 1.0 µM): 86%
residual activity ([32]; compound 0.01 µM): 83%
residual activity ([32]; compound 0.1 µM): 16%
residual activity ([32]; compound 1.0 µM): 2%

CCNc1nc(Nc2cc(F)c(C(=O)N3CCOCC3)cc2OC)ncc1C(F)(F)F
residual activity ([1]; compound 1.0 µM): 102%
residual activity ([1]; compound 10.0 µM): 106%
residual activity ([2]; compound 1.0 µM): 96%
residual activity ([2]; compound 10.0 µM): 90%
residual activity ([3]; compound 1.0 µM): 12%
residual activity ([3]; compound 10.0 µM): 2%
residual activity ([4]; compound 1.0 µM): 91%
residual activity ([4]; compound 10.0 µM): 90%
residual activity ([5]; compound 1.0 µM): 97%
residual activity ([5]; compound 10.0 µM): 98%
residual activity ([6]; compound 1.0 µM): 99%
residual activity ([6]; compound 10.0 µM): 80%
residual activity ([7]; compound 1.0 µM): 100%
residual activity ([7]; compound 10.0 µM): 93%
residual activity ([8]; compound 1.0 µM): 69%
residual activity ([8]; compound 10.0 µM): 21%
residual activity ([9]; compound 1.0 µM): 109%
residual activity ([9]; compound 10.0 µM): 90%
residual activity ([10]; compound 1.0 µM): 65%
residual activity ([10]; compound 10.0 µM): 32%
residual activity ([11]; compound 1.0 µM): 80%
residual activity ([11]; compound 10.0 µM): 41%
residual activity ([12]; compound 1.0 µM): 99%
residual activity ([12]; compound 10.0 µM): 54%
residual activity ([13]; compound 1.0 µM): 91%
residual activity ([13]; compound 10.0 µM): 61%
residual activity ([14]; compound 1.0 µM): 71%
residual activity ([14]; compound 10.0 µM): 29%
residual activity ([15]; compound 1.0 µM): 108%
residual activity ([15]; compound 10.0 µM): 95%
residual activity ([16]; compound 1.0 µM): 57%
residual activity ([16]; compound 10.0 µM): 15%
residual activity ([17]; compound 1.0 µM): 66%
residual activity ([17]; compound 10.0 µM): 21%
residual activity ([18]; compound 1.0 µM): 110%
residual activity ([18]; compound 10.0 µM): 88%
residual activity ([19]; compound 1.0 µM): 97%
residual activity ([19]; compound 10.0 µM): 96%
residual activity ([20]; compound 1.0 µM): 97%
residual activity ([20]; compound 10.0 µM): 81%
residual activity ([21]; compound 1.0 µM): 39%
residual activity ([21]; compound 10.0 µM): 22%
residual activity ([22]; compound 1.0 µM): 100%
residual activity ([22]; compound 10.0 µM): 85%
residual activity ([23]; compound 1.0 µM): 104%
residual activity ([23]; compound 10.0 µM): 98%
residual activity ([24]; compound 1.0 µM): 110%
residual activity ([24]; compound 10.0 µM): 102%
residual activity ([25]; compound 1.0 µM): 104%
residual activity ([25]; compound 10.0 µM): 101%
residual activity ([26]; compound 1.0 µM): 12%
residual activity ([26]; compound 10.0 µM): 3%
residual activity ([27]; compound 1.0 µM): 100%
residual activity ([27]; compound 10.0 µM): 84%
residual activity ([28]; compound 1.0 µM): 95%
residual activity ([28]; compound 10.0 µM): 74%
residual activity ([29]; compound 1.0 µM): 98%
residual activity ([29]; compound 10.0 µM): 47%
residual activity ([30]; compound 1.0 µM): 92%
residual activity ([30]; compound 10.0 µM): 61%
residual activity ([31]; compound 1.0 µM): 103%
residual activity ([31]; compound 10.0 µM): 104%
residual activity ([32]; compound 1.0 µM): 102%
residual activity ([32]; compound 10.0 µM): 79%
